Measurements: US20250163051A1, “PYRIMIDO AROMATIC RING COMPOUND AND USE THEREOF IN DRUG” (SUNSHINE LAKE PHARMA CO., LTD., priority 2022, published 2025)
Where two headings read alike, the source gives them in different places.

Columns and labels:
[1] = molecular target: T1, hTLR8 (Homo sapiens, UniProt Q9NR97); experiment: Agonistic activity on human TLR8 in HEK-Blue hTLR8 cells (QUANTI-Blue); type: cell-based; conditions: 24 h incubation, OD650, read-out: hTLR 8 EC50
T1 construct: expressed in transfected cells; host or cells: HEK-Blue hTLR8 cells
T1 sequence (Q9NR97 27-1041): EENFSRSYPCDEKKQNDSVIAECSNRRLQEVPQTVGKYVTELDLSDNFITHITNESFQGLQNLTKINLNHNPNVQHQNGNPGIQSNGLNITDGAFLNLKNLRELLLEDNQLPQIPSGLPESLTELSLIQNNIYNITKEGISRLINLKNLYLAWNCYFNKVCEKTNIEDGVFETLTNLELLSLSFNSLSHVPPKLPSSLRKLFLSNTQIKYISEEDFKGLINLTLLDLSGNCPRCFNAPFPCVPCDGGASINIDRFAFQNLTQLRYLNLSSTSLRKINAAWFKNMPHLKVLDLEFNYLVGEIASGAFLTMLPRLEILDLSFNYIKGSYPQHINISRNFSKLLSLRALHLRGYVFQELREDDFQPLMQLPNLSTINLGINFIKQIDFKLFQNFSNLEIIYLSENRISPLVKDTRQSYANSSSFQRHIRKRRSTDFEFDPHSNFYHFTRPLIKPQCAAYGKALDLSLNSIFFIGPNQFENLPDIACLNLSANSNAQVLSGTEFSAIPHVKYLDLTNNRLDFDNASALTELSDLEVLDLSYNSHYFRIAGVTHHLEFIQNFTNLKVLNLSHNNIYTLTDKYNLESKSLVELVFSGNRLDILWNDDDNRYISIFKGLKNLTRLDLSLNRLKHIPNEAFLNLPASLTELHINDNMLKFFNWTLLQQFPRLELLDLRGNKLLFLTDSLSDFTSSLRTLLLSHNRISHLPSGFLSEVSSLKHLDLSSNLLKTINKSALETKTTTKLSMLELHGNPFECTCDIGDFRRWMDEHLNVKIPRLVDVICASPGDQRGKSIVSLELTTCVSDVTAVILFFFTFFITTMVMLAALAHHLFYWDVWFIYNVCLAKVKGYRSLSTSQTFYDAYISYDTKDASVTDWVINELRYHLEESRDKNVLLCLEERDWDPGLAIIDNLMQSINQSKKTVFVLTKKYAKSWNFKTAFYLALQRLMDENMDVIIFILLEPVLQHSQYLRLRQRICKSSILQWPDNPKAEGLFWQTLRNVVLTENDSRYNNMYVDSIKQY

[2] = molecular target: T2, CYP2C19 (Homo sapiens, UniProt P33261); experiment: Inhibition of human liver microsomal CYP2C19; type: in vitro ADME; conditions: human liver microsomes, 10 μM test substance; read-out: Relative inhibition rate (%) CYP2C19
T2 construct: from tissue; host or cells: human liver microsomes
T2 sequence (P33261 whole entry): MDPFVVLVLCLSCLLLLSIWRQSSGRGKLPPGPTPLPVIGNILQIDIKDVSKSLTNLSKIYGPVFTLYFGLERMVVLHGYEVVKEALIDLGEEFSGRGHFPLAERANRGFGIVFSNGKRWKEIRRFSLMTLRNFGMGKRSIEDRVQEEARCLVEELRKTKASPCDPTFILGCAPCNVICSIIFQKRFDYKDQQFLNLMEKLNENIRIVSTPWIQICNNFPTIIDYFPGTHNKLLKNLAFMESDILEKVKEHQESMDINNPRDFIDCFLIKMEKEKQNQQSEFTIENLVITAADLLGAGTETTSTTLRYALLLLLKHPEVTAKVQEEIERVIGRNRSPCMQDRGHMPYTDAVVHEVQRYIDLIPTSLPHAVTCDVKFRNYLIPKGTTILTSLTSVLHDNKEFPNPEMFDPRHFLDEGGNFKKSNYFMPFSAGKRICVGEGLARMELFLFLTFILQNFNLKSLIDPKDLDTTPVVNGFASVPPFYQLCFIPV
Description: (§1) Experimental purpose: The inhibitory effects of the test compounds on the major metabolizing enzymes CYP1A2, CYP2C19, CYP2D6 and CYP3A4 in microsomes were evaluated using the human liver microsomal system. Experimental method: The test substance was incubated with a suspension of human liver microsomes containing cytochrome P450 enzymes CYP1A2, CYP2C19, CYP2D6 and CYP3A4 at a concentration of 10 μM in the final incubation system. The known substrates were metabolized by the corresponding single enzymes to generate specific metabolites, and the metabolites were determined by UPLC-MS/MS method. The relative inhibition rate (%) was calculated by the percentage reduction of metabolite production by the test compound and solvent DMSO in the same time period. N is the concentration value of the probe substrate metabolite and it is assumed that the […] with or without inhibitor at 0 min is 0. N+inh is the metabolite concentration in the group with inhibitor, and Nveh is the metabolite concentration in the group without inhibitor. The results of the inhibition test of the compounds of the present invention on human liver microsomal CYP enzymes are shown in Table C.

[3] = molecular target: T3, CYP2D6 (Homo sapiens, UniProt P10635); experiment: Inhibition of human liver microsomal CYP2D6; type: in vitro ADME; conditions: human liver microsomes, 10 μM test substance; read-out: Relative inhibition rate (%) CYP2D6
T3 construct: from tissue; host or cells: human liver microsomes
T3 sequence (P10635 whole entry): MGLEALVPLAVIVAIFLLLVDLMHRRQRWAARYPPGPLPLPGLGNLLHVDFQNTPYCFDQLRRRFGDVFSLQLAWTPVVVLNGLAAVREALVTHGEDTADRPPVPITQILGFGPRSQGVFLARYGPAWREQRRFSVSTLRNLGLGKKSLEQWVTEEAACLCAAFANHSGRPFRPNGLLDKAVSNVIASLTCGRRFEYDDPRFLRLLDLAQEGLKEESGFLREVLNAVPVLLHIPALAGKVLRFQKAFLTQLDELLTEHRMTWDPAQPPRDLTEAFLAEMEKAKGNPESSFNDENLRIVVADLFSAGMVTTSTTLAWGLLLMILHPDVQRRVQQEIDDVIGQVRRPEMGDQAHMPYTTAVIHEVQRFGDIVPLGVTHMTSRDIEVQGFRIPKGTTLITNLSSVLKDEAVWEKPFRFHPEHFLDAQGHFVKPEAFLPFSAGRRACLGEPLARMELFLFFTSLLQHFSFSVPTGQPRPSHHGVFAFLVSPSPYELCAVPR
Description: as §1

[4] = molecular target: T4, CYP3A4 (Homo sapiens, UniProt P08684); experiment: Inhibition of human liver microsomal CYP3A4; type: in vitro ADME; conditions: human liver microsomes, 10 μM test substance
T4 construct: from tissue; host or cells: human liver microsomes
T4 sequence (P08684 whole entry): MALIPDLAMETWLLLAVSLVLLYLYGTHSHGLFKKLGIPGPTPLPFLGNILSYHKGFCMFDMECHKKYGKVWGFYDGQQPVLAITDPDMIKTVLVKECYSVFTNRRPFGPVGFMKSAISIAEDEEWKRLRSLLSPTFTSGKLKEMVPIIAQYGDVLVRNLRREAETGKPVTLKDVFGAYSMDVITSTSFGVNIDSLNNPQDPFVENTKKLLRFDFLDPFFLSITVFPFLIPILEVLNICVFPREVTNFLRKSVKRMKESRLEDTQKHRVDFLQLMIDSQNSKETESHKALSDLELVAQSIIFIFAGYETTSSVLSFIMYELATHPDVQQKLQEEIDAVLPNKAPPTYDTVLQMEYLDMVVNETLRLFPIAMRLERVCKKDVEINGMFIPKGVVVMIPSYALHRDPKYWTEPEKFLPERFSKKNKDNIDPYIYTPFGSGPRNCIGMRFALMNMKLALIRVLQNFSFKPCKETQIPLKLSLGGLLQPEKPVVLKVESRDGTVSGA
Description: as §1

[5] = tested on: CYP1A2; experiment: Induction of CYP1A2 in frozen human hepatocytes; type: in vitro ADME; conditions: 72 h induction, concentration and readout not stated
Description: (§2) Experimental purpose: Using frozen human hepatocytes as the test system, the induction effects of the test substances on CYP1A2, CYP2B6 and CYP3A4 were evaluated from two aspects of enzyme activity and mRNA level.
(§3) Experimental method: 24 hours after cell plating, induction was started by adding medium containing the test compound (test concentrations were 10, 1, and 0.1 μM), and fresh drug-containing medium was replaced every 24 hours. After 72 hours of induction, the medium was replaced with medium containing CYP1A2, CYP2B6, and CYP3A4 specific substrates for 30 minutes of incubation. 100 μL was taken for treatment, and the labeled metabolites of the substrates were detected to evaluate the enzyme activity level. Finally, the cells were lysed and reverse transcribed, and the expression levels of CYP1A2, CYP2B6 and CYP3A4 genes in the cells were evaluated by real-time quantitative PCR.
(§4) The induction fold of the test compound compared with the blank control and the induction percentage of the test compound compared with the positive control were used as the basis for evaluating the induction potential of the test compound. Among them, the positive control for CYP1A2 is Omeprazole; the positive control for CYP2B6 is Phenobarbital; the positive control for CYP3A4 is Rifampicin.

[6] = tested on: CYP2B6; experiment: Induction of CYP2B6 in frozen human hepatocytes; type: in vitro ADME; conditions: 72 h induction, concentration and readout not stated; for CYP2B6 Induction percentage relative to positive control (%): positive control Phenobarbital
Description: as §2, §3, §4

[7] = Cell toxicity (Celltiter-Glo) in HEK-Blue hTLR8 cells; conditions: human
[8] = probe Midazolam, substrate Midazolam, read-out: Relative inhibition rate (%) CYP3A4 (Midazolam)
[9] = probe Testosterone, substrate Testosterone, read-out: Relative inhibition rate (%) CYP3A4 (Testosterone)

Compound	EC50 [1] [nM]	inhibition at 10 µM [2] [%]	inhibition at 10 µM [3] [%]	inhibition at 10 µM [4, 8] [%]	inhibition at 10 µM [4, 9] [%]	CYP1A2 Induction fold relative to blank control [5]	CYP2B6 Induction fold relative to blank control [6]	CYP2B6 Induction percentage relative to positive control (%) [6] [%]	CC50 at 24 h [7] [nM]
CCCC[C@](C)(CO)Nc1nc(N)nc2cc(-c3cc(=O)n(C)cc3CN3CCCCC3)ccc12 [Example 8]	42	9.3	18.1	9.6	6.3	0.7	0.6	−4.1	98300
CCCCN(C)Cc1c[nH]c(=O)cc1-c1cnc2c(N[C@@](C)(CO)CCCC)nc(N)nc2c1 [Example 28, (R)-4-(2-Amino-4-((1-hydroxy-2-methylhexan-2-yl)amino)pyrido[3,2-d]pyrimidin-7-yl)-5-((butyl(methyl)amino)methyl)pyridin-2(1H)-one]	63	30.5	12.9	31.1	17.9	0.8	0.9	−0.7	> 100000
CCCC[C@](C)(CO)Nc1nc(N)nc2cc(-c3cc(=O)[nH]cc3CN(C)CCOC)cnc12 [Example 21]	34	10.5	9.5	15.3	18	0.6	0.5	−4.8	> 100000
C=CCCN(C)Cc1c[nH]c(=O)cc1-c1ccc2c(N[C@@](C)(CO)CCCC)nc(N)nc2c1 [Example 35]	79	9.7	31.4	23.9	11.5	0.4	0.4	−5.6	> 100000
